Assay results as given in US12133924B2, “Compositions and methods for organ specific delivery of nucleic acids” (The Board of Regents of The University of Texas System, priority 2018, dated 2024).

Tests used:
C57BL/6 mice [1] = experiment: In vivo Luc mRNA delivery after IV injection, ex vivo organ luminescence; design: species or system mouse; conditions: 6 h; for organ of luciferase expression (tissue specific mRNA delivery): IV, 0.1 mg/kg Luc mRNA
Experimental: Next, to test the ability of these mDLNPs to deliver mRNA in vivo, mice were injected with a dose of 0.1 mg/kg of Luc mRNA in each of the formulations. […] Assuming that luciferase expression was detected only in liver, spleen and lung after IV injection, the percentage of luciferase expressed in each organ can be calculated (FIG. 1C). […] However, the greater the DOTAP percentage, the more luminescence is seen in lung tissues, with close to 100% of luminescence seen in the lung when DOTAP percentage is greater than 80% (FIG. 1C).
C57BL/6 mice with weight of 18-20 g, were IV injected by various Luc mRNA formulations at a dose of 0.1 or 0.05 mg/kg. n=2-4 per group. After 6 h, mice were intraperitoneal (IP) injected with D-Luciferin (150 mg/kg) and imaged by an IVIS Lumina system (Perkin Elmer). For biodistribution, C57BL/6 mice were IV injected with Cy5-Luc mRNA formulations at a dose of 0.5 mg/kg. Ex vivo imaging (Cy5 channel) was performed 6 h post injection.

C57BL/6 mice [2] = experiment: Biodistribution of Cy5-Luc mRNA formulations; format: in vivo, mouse; conditions: IV, 0.5 mg/kg, 6 h
Experimental: To test the organ biodistributions of specific DOTAP formulations in greater depth, PBS or liver targeting NPs (mDLNP), spleen targeting NPs (DOTAP10) and lung targeting NPs (DOTAP50) were injected into C57BL/6 mice (n=2) at a dose of 0.5 mg/kg Cy5-Luc mRNA (dye labeled mRNA to track RNA LNPs). 6 h post injection, major organs were collected and imaged (FIG. 3A). The organ distribution of formulations was changed by the amount of DOTAP, and accumulation in liver gradually moved to lung with increasing DOTAP percentages, but regardless of DOTAP percentage, there are still NPs present in the liver (FIG. 7, FIG. 8). […] Further, considering the similar size distribution and EE between these formulations, zeta-potential and pKa may play roles in tissue targeting mRNA expression.
Mechanistic experiments were conducted to explore how and why inclusion of extra lipids in defined categories controls mRNA delivery to different organs. It is logical that LNPs that deliver to cells within the lungs should biodistribute (accumulate) in the lungs. Cy5-labeled mRNA was delivered to track the in vivo distribution of 5A2-SC8 LNPs containing SORT lipids with lung (DOTAP quaternary amino lipid), spleen (18PA anionic lipid and DSPC zwitterionic lipid) and liver (DODAP ionizable tertiary amino lipid) tropism (FIGS. 27A & 28). […]

HeLa-Luc cells = experiment: Cellular uptake and uptake mechanism in HeLa-Luc cells; format: cell-based; conditions: pre-incubation 1 h, then 24 nM sgLuc, 30 min
Excerpt: First, DOTNPs containing Cas9/sgRNA RNPs that were tagged by a green fluorescent EGFP were tracked by confocal microscopy (FIG. 12A). […] Green: EGFP fused Cas9 protein; Blue: nuclei stained with Hoechst 33342. Red arrows indicated the process of DOTNP10 entering into nucleus. (FIG. 12B)
To evaluate this strategy, 5A2-SC8 was selected as the ionizable cationic lipid because 5A2-SC8 LNPs safely deliver short siRNAs/miRNAs and long mRNAs to mice with compromised liver function, including MYC-driven liver cancer (Zhou et al., 2016; Zhang et al., 2018a; Zhang et al., 2018b) or genetic knockout of fumarylacetoacetate hydrolase (FAH) (Cheng et al., 2018). Introduction of a permanently cationic lipid (e.g. DOTAP) into traditional 4-component 5A2-SC8 LNP formulations indeed allowed controlled self-assembly to occur by mixing an ethanol solution of lipids with a PBS solution of RNPs (1/3, v/v). […] Initially using sgRNA targeting reporter Luciferase (sgLuc), the size of LNPs with 10 mole % DOTAP incorporation (5A2-DOT-10: 5A2-SC8/DOPE/Cho1/DMG-PEG/DOTAP=15/15/30/3/7 (mol/mol)) was observed, prepared using PBS buffer were slightly larger than nanoparticles without RNP loading. […]
To examine the uptake mechanism, assays of specific inhibition on endocytosis pathways were evaluated using Hela-Luc cells. […] The cells were then collected and analyzed by flow cytometry. […]

Td-Tomato mice = experiment: sgRNA screening in Td-Tomato mice; format: in vivo, mouse; conditions: mDLNP, Cas9/sgRNA 4/1 wt/wt, total 3 mg/kg IV, day 7
Excerpt: These sgRNAs are sgTom1, sgTom2 and sgLoxP. […] Considering the weak PAM of sgLoxP (NAG), sgTom1 was finally chosen for further experiments.

Row | Compound | organ of luciferase expression (tissue specific mRNA delivery) (C57BL/6 mice [1]) | also measured
1 | CCCCCCCCCCCCCC(=O)OC[C@H](COP(=O)(O)O)OC(=O)CCCCCCCCCCCCC [14PA, 1,2-dimyristoyl-sn-glycero-3-phosphate] | exclusively spleen | –
2 | CCCCCCCC/C=C\CCCCCCCC(=O)OCC(O)COP(=O)(O)OCC(COC(=O)CCCCCCC/C=C\CCCCCCCC)OC(=O)CCCCCCC/C=C\CCCCCCCC (stereo not shown) [18BMP, sn-(3-oleoyl-2-hydroxy)-glycerol-1-phospho-sn-3′-(1′,2′-dioleoyl)-glycerol] | exclusively spleen | –
3 | CCCCCCCC/C=C\CCCCCCCC(=O)OC[C@H](COP(=O)(O)O)OC(=O)CCCCCCC/C=C\CCCCCCCC [18PA, 1,2-dioleoyl-sn-glycero-3-phosphate] | exclusively spleen | organ distribution of Cy5-labeled mRNA (C57BL/6 mice [2]): increased uptake into the spleen
4 | CCCCCCCCCCC(O)CN(CCN1CCN(CCN(CC(O)CCCCCCCCCC)CC(O)CCCCCCCCCC)CC1)CCN(CC(O)CCCCCCCCCC)CC(O)CCCCCCCCCC (stereo not shown) [C12-200] | enhanced liver delivery without any luciferase expression in the lungs | delivery efficacy compared with original mDLNP formulation (C57BL/6 mice [1]; 0.1 mg/kg, n=2): much better delivery efficacy than original mDLNP formulation
5 | CCCCCCCCCCCCCCCCCC[N+](C)(C)CCCCCCCCCCCCCCCCCC [DDAB, dimethyldioctadecylammonium] | liver to spleen to lung based on SORT lipid percentage | organ of luciferase signal at 40% SORT lipid (C57BL/6 mice [1]; 0.1 mg/kg): high luciferase signal was observed exclusively in the lungs
6 | CCCCCCCC/C=C\CCCCCCCC(=O)OCC(C[N+](C)(C)CCOP(=O)([O-])OCC)OC(=O)CCCCCCC/C=C\CCCCCCCC (stereo not shown) [DOCPe, 2-((2,3-bis(oleoyloxy)propyl)dimethylammonio)ethyl ethyl phosphate] | move from liver to spleen | –
7 | CCCCCCCC/C=C\CCCCCCCC(=O)OCC(CN(C)C)OC(=O)CCCCCCC/C=C\CCCCCCCC (stereo not shown) [DODAP, 1,2-dioleoyl-3-dimethylammonium-propane] | enhanced liver delivery without any luciferase expression in the lungs | mRNA delivery when added to C2 LNPs (no ionizable cationic lipid) (C57BL/6 mice [1]; 0.1 mg/kg, n=2): failed to enable significant mRNA delivery
8 | CCCCCCCC/C=C\CCCCCCCC(=O)OCC(C[N+](C)(C)C)OC(=O)CCCCCCC/C=C\CCCCCCCC (stereo not shown) [DOTAP, 1,2-dioleoyl-3-trimethylammonium-propane] | liver to spleen to lung based on SORT lipid percentage | mRNA delivery when added to C2 LNPs (no ionizable cationic lipid) (C57BL/6 mice [1]; 0.1 mg/kg, n=2): failed to enable significant mRNA delivery; organ distribution of Cy5-labeled mRNA (C57BL/6 mice [2]): progressive increase in lung accumulation
9 | CCCCCCCCCCCCCCCCCC(=O)OC[C@H](COP(=O)([O-])OCC[N+](C)(C)C)OC(=O)CCCCCCCCCCCCCCCCC [DSPC, 1,2-distearoyl-sn-glycero-3-phosphocholine] | move from liver to spleen | –
10 | CCCCCCCCCCCCCC(=O)OCC(COP(=O)(OCC)OCC[N+](C)(C)C)OC(=O)CCCCCCCCCCCCC.Cl (stereo not shown) [EPC, 1,2-dimyristoyl-sn-glycero-3-ethylphosphocholine] | liver to spleen to lung based on SORT lipid percentage | organ of luciferase signal at 40% SORT lipid (C57BL/6 mice [1]; 0.1 mg/kg): high luciferase signal was observed exclusively in the lungs
11 | Methyl-o-cyclodextrin [MβCD] | – | effect of endocytosis inhibitor on uptake of 5A2-DOT-10 LNPs (HeLa-Luc cells): significantly inhibited
12 | sgTom1: sgRNA, AAGTAAAACCTCTACAAATG (SEQ ID NO: 1) (chemically modified sgRNA from Synthego, pattern not given here) | – | induction of TdTomato in liver (Td-Tomato mice): more successful at inducing TdTomato than sgTom2
